Assay results reported in US7968577B2 (Bristol-Myers Squibb Company, priority 2006, dated 2011).

Biological target: T1, human glucocorticoid receptor (Homo sapiens, UniProt P04150)
T1 construct: purified human recombinant full-length glucocorticoid receptor; purchased Invitrogen Part #2893
T1 sequence (P04150 1-777): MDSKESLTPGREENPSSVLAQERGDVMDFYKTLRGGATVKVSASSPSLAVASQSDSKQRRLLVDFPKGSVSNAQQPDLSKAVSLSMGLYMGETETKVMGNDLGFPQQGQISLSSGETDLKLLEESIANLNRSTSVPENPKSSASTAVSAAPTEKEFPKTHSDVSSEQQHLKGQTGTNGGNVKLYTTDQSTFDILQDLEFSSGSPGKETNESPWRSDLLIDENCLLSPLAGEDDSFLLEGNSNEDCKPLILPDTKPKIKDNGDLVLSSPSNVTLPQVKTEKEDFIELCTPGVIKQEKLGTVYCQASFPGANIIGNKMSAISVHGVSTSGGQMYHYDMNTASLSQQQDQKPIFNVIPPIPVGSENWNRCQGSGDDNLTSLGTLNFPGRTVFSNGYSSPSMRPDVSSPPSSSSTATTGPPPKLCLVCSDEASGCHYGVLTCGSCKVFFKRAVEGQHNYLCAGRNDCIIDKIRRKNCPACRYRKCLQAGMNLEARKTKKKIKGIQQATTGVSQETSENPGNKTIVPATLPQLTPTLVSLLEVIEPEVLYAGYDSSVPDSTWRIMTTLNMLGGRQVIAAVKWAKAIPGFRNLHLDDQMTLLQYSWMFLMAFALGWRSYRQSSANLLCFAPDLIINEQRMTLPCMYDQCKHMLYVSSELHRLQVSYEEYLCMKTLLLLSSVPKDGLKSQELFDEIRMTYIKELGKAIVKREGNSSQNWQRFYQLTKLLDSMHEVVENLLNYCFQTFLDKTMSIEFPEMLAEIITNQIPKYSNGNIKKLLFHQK
Assay: Glucocorticoid Receptor Binding Assay (I), fluorescence polarization competitor kit (Fluormone GS Red)
Details: GR Binding Assay (I)
Protocol: Glucocorticoid Receptor Binding Assay (I)^a
In order to assess the affinity of test compounds for the human glucocorticoid receptor, a commercially available kit was used (Glucocorticoid Receptor Competitor Assay Kit, Invitrogen Part #2893). Briefly, purified human recombinant full-length glucocorticoid receptor (2 nM) was mixed with fluorescently labeled glucocorticoid (1 nM Fluormone GS Red) in the presence or absence of test compound. After two hour incubation at room temperature in the dark, the fluorescence polarization (FP) of the samples was measured. […] Test compounds were analyzed in the concentration range from 8.5 E-05 μM to 5 μM.

Ki [nM] | Compound
9.22 | COc1ccc(C(c2ccccc2)C(C)(C)C(=O)Nc2nncs2)cc1C (single isomer, unassigned) [Example 294, 2,2-dimethyl-3-(3-methyl-4-(methyloxy)phenyl)-3-phenyl-N-1,3,4-thiadiazol-2-ylpropanamide]
5.72 | CC(C)(C(=O)Nc1nncs1)C(c1ccccc1)c1ccc(-c2ccc(CO)cc2)cc1 (stereo not shown) [Example 421, 3-(4′-(hydroxymethyl)-4-biphenylyl)-2,2-dimethyl-3-phenyl-N-1,3,4-thiadiazol-2-ylpropanamide]
7.1 | CCCc1ccc(-c2ccc(C(CC(C)C)C(C)(C)C(=O)Nc3nncs3)cc2)cc1 (stereo not shown) [Example 399, 2,2,5-trimethyl-3-(4′-propyl-4-biphenylyl)-N-1,3,4-thiadiazol-2-ylhexanamide]
10.7 | COc1ccccc1-c1ccc(C(CC(C)C)C(C)(C)C(=O)Nc2nncs2)cc1 (stereo not shown) [Example 435, 3-(2′-methoxy-4-biphenylyl)-2,2,5-trimethyl-N-1,3,4-thiadiazol-2-ylhexanamide]
5.68 | CC(C)(C(=O)Nc1nccs1)C(c1ccccc1)c1ccc(Oc2ccccc2)cc1 (stereo not shown) [Example 321, 2,2-dimethyl-3-phenyl-3-(4-(phenyloxy)phenyl)-N-1,3-thiazol-2-ylpropanamide]
26.5 | CCCCc1ccc(-c2ccc(C(c3ccccc3)C(C)(C)C(=O)Nc3nncs3)cc2)cc1 (stereo not shown) [Example 418, 3-(4′-butyl-4-biphenylyl)-2,2-dimethyl-3-phenyl-N-1,3,4-thiadiazol-2-ylpropanamide]
6.43 | CCCc1ccc(-c2ccc(C(c3ccccc3)C(C)(C)C(=O)Nc3nncs3)cc2)cc1 (stereo not shown) [Example 384, 2,2-dimethyl-3-phenyl-3-(4′-propyl-4-biphenylyl)-N-1,3,4-thiadiazol-2-ylpropanamide]
184 | CC(C)CC(c1ccc(-c2ccc(Cl)cc2)cc1)C(C)(C)C(=O)Nc1nncs1 (stereo not shown) [Example 432, 3-(4′-chloro-4-biphenylyl)-2,2,5-trimethyl-N-1,3,4-thiadiazol-2-ylhexanamide]
17.1 | CC(C)CC(c1ccc(Br)cc1)C(C)(C)C(=O)Nc1nncs1 (stereo not shown) [Example 387, 3-(4-bromophenyl)-2,2,5-trimethyl-N-1,3,4-thiadiazol-2-ylhexanamide]
52.9 | CC(C)(C)c1ccc(-c2ccc(C(c3ccccc3)C(C)(C)C(=O)Nc3nncs3)cc2)cc1 (stereo not shown) [Example 417, 3-(4′-tert-butyl-4-biphenylyl)-2,2-dimethyl-3-phenyl-N-1,3,4-thiadiazol-2-ylpropanamide]
154 | COc1ccccc1-c1ccc(C(c2ccccc2)C(C)(C)C(=O)Nc2nncs2)cc1 (stereo not shown) [Example 411, 3-(2′-methoxy-4-biphenylyl)-2,2-dimethyl-3-phenyl-N-1,3,4-thiadiazol-2-ylpropanamide]
11.1 | COc1ccc(-c2ccc(C(CC(C)C)C(C)(C)C(=O)Nc3nccs3)cc2)cc1 (stereo not shown) [Example 391, 2,2,5-trimethyl-3-(4′-(methyloxy)-4-biphenylyl)-N-1,3-thiazol-2-ylhexanamide]
101 | CCC(CC)(C(=O)Nc1nccs1)C(c1ccccc1)c1ccccc1 [Example 159, 2-(diphenylmethyl)-2-ethyl-N-1,3-thiaozl-2-ylbutanamide]
5.53 | CCOc1ccc(-c2ccc(C(c3ccccc3)C(C)(C)C(=O)Nc3nncs3)cc2)cc1 (stereo not shown) [Example 419, 3-(4′-ethoxy-4-biphenylyl)-2,2-dimethyl-3-phenyl-N-1,3,4-thiadiazol-2-ylpropanamide]
386 | CC(C)(C(=O)Nc1nccs1)C(c1ccccc1)c1ccc(Cc2ccccc2)cc1 (stereo not shown) [Example 319, 2,2-dimethyl-3-phenyl-3-(4-(phenylmethyl)phenyl)-N-1,3-thiazol-2-ylpropanamide]
105 | CC(C)CC(c1ccc(-c2ccc(O)cc2)cc1)C(C)(C)C(=O)Nc1nncs1 (stereo not shown) [Example 436, 3-(4′-hydroxy-4-biphenylyl)-2,2,5-trimethyl-N-1,3,4-thiadiazol-2-ylhexanamide]
9.27 | CC(=O)Nc1ccc(-c2ccc(C(c3ccccc3)C(C)(C)C(=O)Nc3nncs3)cc2)cc1 (stereo not shown) [Example 414, 3-(4′-acetamido-4-biphenylyl)-2,2-dimethyl-3-phenyl-N-1,3,4-thiadiazol-2-ylpropanamide]

Ki [nM] | Compound
23.2 | O=C(Nc1nccs1)C1(C(c2ccccc2)c2ccccc2)CCC1 [Example 153, 1-(diphenylmethyl)-N-1,3-thiazol-2-ylcyclobutanecarboxamide]
13.3 | COc1ccc(-c2ccc(C(c3ccccc3)C(C)(C)C(=O)Nc3nncs3)cc2)cc1F (stereo not shown) [Example 420, 3-(3′-fluoro-4′-methoxy-4-biphenylyl)-2,2-dimethyl-3-phenyl-N-1,3,4-thiadiazol-2-ylpropanamide]
5.17 | CC(C)(C(=O)Nc1nncs1)C(c1ccccc1)c1ccc(Oc2ccccc2)cc1 (stereo not shown) [Example 322, 2,2-dimethyl-3-phenyl-3-(4-(phenyloxy)phenyl)-N-1,3,4-thiadiazol-2-ylpropanamide]
5.41 | CC(C)CC(c1ccc(N2CCOCC2)cc1)C(C)(C)C(=O)Nc1nncs1 (stereo not shown) [Example 390, 2,2,5-trimethyl-3-(4-(4-morpholinyl)phenyl)-N-1,3,4-thiadiazol-2-ylhexanamide]
3.53 | CN(C)C(=O)c1ccc(-c2ccc(C(c3ccccc3)C(C)(C)C(=O)Nc3nccs3)cc2)cc1 (stereo not shown) [Example 381, 4′-(2,2-dimethyl-3-oxo-1-phenyl-3-(1,3-thiazol-2-ylamino)propyl)-N,N-dimethyl-4-biphenylcarboxamide]
13.8 | CC(C)Oc1ccc(-c2ccc(C(c3ccccc3)C(C)(C)C(=O)Nc3nncs3)cc2)cc1F (stereo not shown) [Example 385, 3-(3′-fluoro-4′-((1-methylethyl)oxy)-4-biphenylyl)-2,2-dimethyl-3-phenyl-N-1,3,4-thiadiazol-2-ylpropanamide]
4.65 | CC(C)CC(c1ccc(N2CCOCC2)cc1)C(C)(C)C(=O)Nc1nccs1 (stereo not shown) [Example 389, 2,2,5-trimethyl-3-(4-(4-morpholinyl)phenyl)-N-1,3-thiazol-2-ylhexanamide]
3.68 | CC(C)CC(c1ccc(-c2ccc(C(=O)N(C)C)cc2)cc1)C(C)(C)C(=O)Nc1nncs1 (stereo not shown) [Example 393, 4′-(1-(1,1-dimethyl-2-oxo-2-(1,3,4-thiadiazol-2-ylamino)ethyl)-3-methylbutyl)-N,N-dimethyl-4-biphenylcarboxamide]
9.28 | CC(C)CC(c1ccc(-c2ccc(C(=O)N3CCOCC3)cc2)cc1)C(C)(C)C(=O)Nc1nncs1 (stereo not shown) [Example 427, 2,2,5-trimethyl-3-(4′-(4-morpholinylcarbonyl)-4-biphenylyl)-N-1,3,4-thiadiazol-2-ylhexanamide]
9.85 | COc1ccc(C(c2ccccc2)C(C)(C)C(=O)Nc2nncs2)cc1C (stereo not shown) [Example 293, 2,2-dimethyl-3-(3-methyl-4-(methyloxy)phenyl)-3-phenyl-N-1,3,4-thiadiazol-2-ylpropanamide]
9.36 | CC(C)(C(=O)Nc1nncs1)C(c1ccccc1)c1ccc(Br)cc1 (stereo not shown) [Example 324, 3-(4-bromophenyl)-2,2-dimethyl-3-phenyl-N-1,3,4-thiadiazol-2-ylpropanamide]
54 | CCC(C)(C(=O)Nc1nccs1)C(c1ccccc1)c1ccccc1 (stereo not shown) [Example 176, 2-(diphenylmethyl)-2-methyl-N-1,3-thiazol-2-ylbutanamide]
52.8 | CC(C)CC(c1ccc(-c2ccccc2)cc1)C(C)(C)C(=O)Nc1nncs1 (stereo not shown) [Example 431, 3-(4-biphenylyl)-2,2,5-trimethyl-N-1,3,4-thiadiazol-2-ylhexanamide]
104 | CC(C)CC(c1ccc(-c2ccc3c(c2)CCO3)cc1)C(C)(C)C(=O)Nc1nncs1 (stereo not shown) [Example 441, 3-(4-(2,3-dihydro-1-benzofuran-5-yl)phenyl)-2,2,5-trimethyl-N-1,3,4-thiadiazol-2-ylhexanamide]
31 | CC(C)CC(c1ccc(-c2ccc(C(=O)NC3CC3)cc2)cc1)C(C)(C)C(=O)Nc1nncs1 (stereo not shown) [Example 429, N-cyclopropyl-4′-(1-(1,1-dimethyl-2-oxo-2-(1,3,4-thiadiazol-2-ylamino)ethyl)-3-methylbutyl)-4-biphenylcarboxamide]
12 | CC(=O)c1ccc(-c2ccc(C(CC(C)C)C(C)(C)C(=O)Nc3nncs3)cc2)cc1 (stereo not shown) [Example 438, 3-(4′-acetyl-4-biphenylyl)-2,2,5-trimethyl-N-1,3,4-thiadiazol-2-ylhexanamide]
20.3 | CC(=O)c1cccc(-c2ccc(C(CC(C)C)C(C)(C)C(=O)Nc3nncs3)cc2)c1 (stereo not shown) [Example 439, 3-(3′-acetyl-4-biphenylyl)-2,2,5-trimethyl-N-1,3,4-thiadiazol-2-ylhexanamide]
